{"source": "patent US5840936A", "about": "“Aminosterol compounds useful as inhibitors of the sodium/proton exchanger (NHE)” (priority 1995, dated 1998)", "key": {"[1]": {"assay": "Effect on growth and weight gain in mice", "type": "in vivo, C57B mice", "details": "10 mg/kg QTD i.p., after 6 doses, about 1 month", "description": "Animals were dosed QTD (i.p.) starting on Day 1. […] Animals receiving 5 mg/kg QTD experienced about a 50% reduction in growth, compared to untreated controls, while animals receiving 1 mg/kg QTD were affected by about 10%. […] They appeared very much like hypophysectamized animals might appear."}, "ELC": {"tested_on": "ELC", "assay": "ELC MTT", "type": "cell-based", "details": "Table II; read-out: ELC MTT, Minimum Effective Concentration"}, "[2]": {"tested_on": "Human coronary artery smooth muscle cells", "assay": "Growth inhibition in vitro, human coronary artery smooth muscle cells", "type": "cell-based", "details": "10 μg/ml", "excerpt": "(§1) As set forth in Table 7 below, all malignant tumors evaluated in tissue culture, endothelial cells and vascular smooth muscle cells were sensitive to inhibition. Thus, compound 1436 has application in the control of growth factor dependent proliferation of many types of tissue."}, "Lewis lung carcinoma": {"tested_on": "Lewis lung carcinoma", "assay": "Growth inhibition in vitro, Lewis lung carcinoma", "type": "cell-based", "details": "10 μg/ml", "excerpt": "as §1"}, "[3]": {"tested_on": "human umbilical venous endothelial cells", "assay": "Growth inhibition in vitro, human umbilical venous endothelial cells", "type": "cell-based", "details": "10 μg/ml", "excerpt": "as §1"}, "[4]": {"tested_on": "Human colon carcinoma SW948", "assay": "Growth inhibition in vitro, SW948", "type": "cell-based", "details": "10 μg/ml", "excerpt": "as §1"}, "[5]": {"tested_on": "L1210 lymphoblastic leukemia", "assay": "Mouse model of L1210 leukemia", "details": "highest dose (10 mg/kg every 3 days i.p.)", "source_text": "C57B mice were inoculated with L1210 lymphoblastic leukemia cells at an inoculum that causes leukemia in 100% of animals."}, "[6]": {"tested_on": "PHA-stimulated lymphocytes", "assay": "Lymphocyte viability in HIV assay", "type": "cell-based", "details": "10080 min", "excerpt": "Results are tabulated below."}, "[7]": {"tested_on": "human coronary artery smooth muscle", "assay": "Growth of human coronary artery smooth muscle in vitro", "type": "cell-based", "excerpt": "Aminosterols of the invention may also have utility in inhibiting the growth factor mediated proliferation of smooth muscle within the artery. Following coronary angioplasty, reocclusion commonly occurs, secondary to reparative proliferation of the vascular smooth muscle within the wall of the surgically manipulated blood vessel. This process generally takes place over the course of 7-10 days. To evaluate whether an agent could prevent the growth factor mediated proliferation of smooth muscle within the artery, compound 1436 was evaluated in vitro for its effect on the proliferation of human coronary artery smooth muscle. Results for compound 1436 are shown in FIG. 13, and those for squalamine are shown in FIG. 14, with FIG. 15 being a composite logarithmic plot."}, "B16 melanoma": {"tested_on": "B16 melanoma", "assay": "Suppression of B16 melanoma growth in C57B mice", "type": "in vivo, mouse", "description": "The growth of B16 melanoma in C57B mice is dependent upon neovascularization.\nUsing the growth of B16 melanoma cells in C57B mice, a recognized model for the evaluation of inhibitors of angiogenesis on the growth of cancers, the effects of subcutaneous, intraperitoneal and oral administration of squalamine were evaluated.\nAnimals were implanted with B16 melanoma followed by treatment with compound 1436 or 1256 administered in a combined schedule or separately. […] Thus, a combination of these two compounds achieves a theraputic benefit in tumors dependent on neovascularization that may prevent metastatic spread."}, "[8]": {"tested_on": "bovine pulmonary endothelial cells", "assay": "Growth inhibition in vitro, bovine pulmonary endothelial cells", "type": "cell-based", "details": "10 μg/ml", "excerpt": "as §1"}, "[9]": {"tested_on": "Human colon carcinoma HT29", "assay": "Growth inhibition in vitro, HT29", "type": "cell-based", "details": "10 μg/ml", "excerpt": "as §1"}, "[10]": {"tested_on": "Xenopus tadpoles, stage 59-60", "assay": "Xenopus tadpole assay", "details": "10 μg/ml"}, "[11]": {"tested_on": "Human ovarian carcinoma SKOV3", "assay": "Growth inhibition in vitro, SKOV3", "type": "cell-based", "details": "10 μg/ml", "excerpt": "as §1"}, "[12]": {"tested_on": "Human microvascular endothelial cells", "assay": "Growth inhibition in vitro, human microvascular endothelial cells", "type": "cell-based", "details": "10 μg/ml", "excerpt": "as §1"}, "[13]": {"assay": "Effect on arterial resistance and blood pressure", "type": "in vivo, rat", "description": "A 200-g rat was catheterized in the right carotid artery, and the compound was introduced over a ten-second period to a total dosage of 5 mg/kg. Within 30 seconds, the mean arterial pressure had fallen from about 100 mm Hg to about 70 mm Hg, with a marked reduction in pulse pressure from about 40 mm to about 10 mm. […] If cardiac output was basically unaffected, reduction in blood pressure would have resulted principally from a reduction in system resistance.\nAt that time, 40 μg of noradrenaline was introduced."}, "[14]": {"tested_on": "Xenopus tadpoles, stage 59-60", "details": "10 μg/mL"}, "rabbit NHE3": {"molecular_target": "rabbit NHE3 (Oryctolagus cuniculus, UniProt P26432)", "sequence (P26432 30-832)": "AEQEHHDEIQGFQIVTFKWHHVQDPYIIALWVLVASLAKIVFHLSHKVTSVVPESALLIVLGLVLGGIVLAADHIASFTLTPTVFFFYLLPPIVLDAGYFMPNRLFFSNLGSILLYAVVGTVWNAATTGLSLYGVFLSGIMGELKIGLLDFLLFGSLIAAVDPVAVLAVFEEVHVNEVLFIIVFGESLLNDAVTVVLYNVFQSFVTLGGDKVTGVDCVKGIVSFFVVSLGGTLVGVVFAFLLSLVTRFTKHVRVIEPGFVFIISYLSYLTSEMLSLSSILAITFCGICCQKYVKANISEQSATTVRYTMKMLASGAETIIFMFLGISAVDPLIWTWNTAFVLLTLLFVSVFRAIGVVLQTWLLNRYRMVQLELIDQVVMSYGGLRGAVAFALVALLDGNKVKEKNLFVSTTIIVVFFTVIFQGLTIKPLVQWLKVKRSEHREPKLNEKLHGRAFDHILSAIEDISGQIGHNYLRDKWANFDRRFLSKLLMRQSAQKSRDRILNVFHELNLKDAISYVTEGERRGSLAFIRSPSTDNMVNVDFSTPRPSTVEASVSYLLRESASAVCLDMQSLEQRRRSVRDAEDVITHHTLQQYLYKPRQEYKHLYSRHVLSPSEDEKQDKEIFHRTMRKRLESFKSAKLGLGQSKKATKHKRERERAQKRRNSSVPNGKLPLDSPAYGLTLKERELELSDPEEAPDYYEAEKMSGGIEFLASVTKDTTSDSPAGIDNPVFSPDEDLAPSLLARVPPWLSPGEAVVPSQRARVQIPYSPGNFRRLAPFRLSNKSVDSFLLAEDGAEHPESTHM", "assay": "NHE3 inhibition, internal pH (BCECF-AM) in transfected PS120 fibroblasts", "details": "10 μg/ml, acid preloaded", "procedure": "Internal pH was measured either following acid loading or in the absence of an acid-loading challenge, with the results shown in FIGS. 1A and 1B.\nSpecifically, PS120 fibroblasts transfected with rabbit NHE3 were grown in supplemented Dulbecco's-modified Eagle's medium as described by Levine et al., J. Biol. Chem. 268, 1993, 25527-25535. […] For cells not acid-preloaded, the actual internal pH value was monitored as a function of time following addition of squalamine, with the results depicted in FIG. 1B.\nPS120 fibroblasts transfected with rabbit NHE3 were grown and acid preloaded by exposure to 40 mM NH4 Cl as described above in conjunction with FIGS. 1A and 1B. Internal cellular pH changes expressed as the rate of pH recovery as a function of restored extracellular sodium ion concentration following exposure to 10 μg/ml of the compound were assayed with the fluorescent dye BCECF-AM as described above."}, "Human melanoma WM 1617": {"tested_on": "Human melanoma WM 1617", "assay": "Growth inhibition in vitro, WM 1617", "type": "cell-based", "details": "10 μg/ml", "excerpt": "as §1"}, "Murine L1210 leukemia": {"tested_on": "Murine L1210 leukemia", "assay": "Growth inhibition in vitro, L1210", "type": "cell-based", "details": "10 μg/ml", "excerpt": "as §1"}, "Murine B16 melanoma": {"tested_on": "Murine B16 melanoma", "assay": "Growth inhibition in vitro, B16", "type": "cell-based", "details": "10 μg/ml", "excerpt": "as §1"}, "[15]": {"assay": "Fasting blood glucose in mice", "type": "in vivo, male CD-1 mice", "description": "To study the effect of steroid administrator or the NHE responsible for secretion of insulin, several of the aminosterols from shark liver were administered to fasting mice. Male CD-1 mice were assigned to one of four treatment groups. Whole blood glucose was tested using glucometer (Lifescan Glucometer II and One Touch test strips). Statistical analysis was via one-way analysis of variance (ANOVA) followed by subsequent Bonferonni's t-test."}, "[16]": {"tested_on": "chick embryo vitelline capillaries", "assay": "Chick embryo vitelline capillary regression assay", "type": "in vivo", "parameters": "key to Vitelline capillary regression: +: Vascular reactivity; 0: No vascular reactivity; +/-: Equivocal reactivity", "description": "Using the chick embryo vitelline capillaries assay, compounds were tested for their ability to induce capillary regression. Each compound was applied in 0.1 ml of 15% Ficol 400 and PBS onto the embryo, and vascular regression was assessed after 60 minutes.\nThe 3-day chick embryo consists of an embryonic disc from which numerous vessels emerge and return, forming a \"FIG. 8\"-shaped structure--the embryo in the center with vascular loops extending outward over both poles. […] Following a lag period of around 15 minutes, the constriction of continuity between capillary and secondary vessels, generally on the \"venous\" side, was observed. Continued pulsatile blood flow progressed, resulting in a \"swelling\" of the blind tube, followed by a pinching off of the remaining connection and formation of an enclosed vascular sac resembling a \"blood island.\" This process progressed until only the largest vessels remained intact."}, "Xenopus laevis heart": {"tested_on": "Xenopus laevis heart", "assay": "Isolated frog heart, persistence of beating ex vivo", "details": "10 μg/ml, room temperature, adrenaline 50 μg/ml; control about one hour", "description": "To determine if compound 1436 has such utility, the following experiment was performed. The heart of a juvenile Xenopus laevis frog was dissected from the living animal. The heart was placed into a Petri dish containing Krebs-Ringer buffer with adrenaline 50 μg/ml, and examined with the naked eye. At room temperature, the heart continued beating in a coordinated fashion (atrial beat followed by ventricular beat) for about one hour. In the presence of 10 μg/ml of compound 1436, spontaneous beating persisted up to 24 hours."}}, "note": "“Also recorded” adds a separate entry of the source.", "data": [{"smiles": "CC(C)[C@@H](CC[C@@H](C)[C@H]1CC[C@H]2[C@@H]3[C@H](O)C[C@H]4C[C@@H](NCCCNCCCCNCCCN)CC[C@]4(C)[C@H]3CC[C@]12C)OS(=O)(=O)O", "note": "[Compound 1436]", "values": [{"measurement": "Growth suppression", "setting": "[1]", "value": "growth was almost completely inhibited"}, {"measurement": "minimal effective concentration", "setting": "ELC", "value": 16.7, "unit": "µg/mL"}, {"measurement": "Inhibited in vitro: Human coronary artery smooth muscle cells", "setting": "[2]", "value": "INHIBITED"}, {"measurement": "Inhibited in vitro: Lewis lung carcinoma", "setting": "Lewis lung carcinoma", "value": "INHIBITED"}, {"measurement": "Inhibited in vitro: Human umbilical venous endothelial cells", "setting": "[3]", "value": "INHIBITED"}, {"measurement": "Inhibited in vitro: Human colon carcinoma SW948", "setting": "[4]", "value": "INHIBITED"}, {"measurement": "Survival in mice bearing L1210 leukemia", "setting": "[5]", "value": "significant prolongation of life"}, {"measurement": "% Viability", "setting": "[6]; 0.5 μM", "value": 91, "unit": "%"}, {"measurement": "% Viability", "setting": "[6]; 10 μM", "value": 95, "unit": "%"}, {"measurement": "Lymphocyte viability", "setting": "[6]; 10 μg/ml", "value": 95, "unit": "%"}, {"measurement": "% Viability", "setting": "[6]; 20 μM", "value": 90.1, "unit": "%"}, {"measurement": "Concentration maintaining quiescent state without loss of viability", "setting": "[7]", "value": "about 11 μg/ml"}, {"measurement": "Suppression of growth of human coronary artery smooth muscle", "setting": "[7]; in vitro", "value": "suppress in vitro the growth of human coronary artery smooth muscle"}, {"measurement": "Impact on tumor volume", "setting": "B16 melanoma; compound 1436 10 mg/kg/every 3 days", "value": "no significant impact on tumor volume"}, {"measurement": "Tumor growth effect of single agent compared with combination", "setting": "B16 melanoma; squalamine 15 mg/kg/day, compound 1436 alone in a tolerable schedule", "value": "Neither administration of squalamine at 15 mg/kg/day nor compound 1436 alone in a tolerable schedule could achieve this effect"}, {"measurement": "Inhibited in vitro: Bovine pulmonary endothelial cells", "setting": "[8]", "value": "INHIBITED"}, {"measurement": "Inhibited in vitro: Human colon carcinoma HT29", "setting": "[9]", "value": "INHIBITED"}, {"measurement": "Tadpole assay, observed effects", "setting": "[10]", "value": "common vascular occlusive effect; also recorded: Gradual reduction in overall activity; also recorded: Melanocytes over head and tail began to swell, first exhibiting visibly distinct nuclei, followed by rupture into fragments; also recorded: dramatic disruption of melanocytes over its head, trunk, and tail, along with depression of its nervous system; also recorded: No effects are observed on epithelial cell integrity, vascular flow, erythrocyte volume, tissue integrity, muscle fiber striation, or GI tract activity"}, {"measurement": "Tadpole time to death", "setting": "[10]", "value": "about 2 hours"}, {"measurement": "Inhibited in vitro: Human ovarian carcinoma SKOV3", "setting": "[11]", "value": "INHIBITED"}, {"measurement": "Inhibited in vitro: Human microvascular endothelial cells", "setting": "[12]", "value": "INHIBITED"}, {"measurement": "Reversibility of blood pressure effect", "setting": "[13]; 40 μg of noradrenaline at 30 minutes", "value": "readily reversible by standard pharmacological practice"}, {"measurement": "Change of effect over 30 minutes", "setting": "[13]; 5 mg/kg i.v., followed for 30 minutes", "value": "without significant change"}, {"measurement": "Pulse pressure after dosing", "setting": "[13]; 5 mg/kg i.v., within 30 seconds, from about 40 mm", "value": "about 10 mm"}, {"measurement": "Mean arterial pressure after dosing", "setting": "[13]; 5 mg/kg i.v., within 30 seconds, from about 100 mm Hg", "value": "about 70 mm Hg"}, {"measurement": "Tadpole E (epithelial)", "setting": "[14]", "value": "±"}, {"measurement": "Tadpole GI (gastrointestinal)", "setting": "[14]", "value": "-"}, {"measurement": "Tadpole M (melanocytes)", "setting": "[14]", "value": "+"}, {"measurement": "Tadpole Mus (muscle)", "setting": "[14]", "value": "-"}, {"measurement": "Tadpole V (vascular)", "setting": "[14]", "value": "+"}, {"measurement": "Inhibition of rabbit NHE3", "setting": "rabbit NHE3", "value": "found to inhibit rabbit NHE3; also recorded: inhibitor of NHE3"}, {"measurement": "Inhibited in vitro: Human melanoma WM 1617", "setting": "Human melanoma WM 1617", "value": "INHIBITED"}, {"measurement": "Inhibited in vitro: Murine L1210 leukemia", "setting": "Murine L1210 leukemia", "value": "INHIBITED"}, {"measurement": "Inhibited in vitro: Murine B16 melanoma", "setting": "Murine B16 melanoma", "value": "INHIBITED"}, {"measurement": "Hyperglycemia", "setting": "[15]; i.v., 1436 in D5W, 1437 in water", "value": "caused hyperglycemia in mice"}, {"measurement": "Fasting Blood Glucose Mean ± SEM", "setting": "[15]; total dose 20 mg/kg i.v. (2 × 10 mg/kg), 30 min. after 2d dose", "value": "105 ± 8.0", "unit": "mg/dL"}, {"measurement": "Vitelline capillary regression", "setting": "[16]; 0.001 μg applied", "value": "+/-"}, {"measurement": "Vitelline capillary regression", "setting": "[16]; 0.01 μg applied", "value": "+"}, {"measurement": "Vitelline capillary regression", "setting": "[16]; 0.1 μg applied", "value": "+"}, {"measurement": "Vitelline capillary regression", "setting": "[16]; 1 μg applied", "value": "+"}, {"measurement": "Vitelline capillary regression", "setting": "[16]; 10 μg applied", "value": "+"}, {"measurement": "Effect on chick embryo vessels", "setting": "[16]; 3- to 5-day chick embryo", "value": "vitelline capillary regression with about the same potency as squalamine"}, {"measurement": "Persistence of spontaneous beating", "setting": "Xenopus laevis heart", "value": "up to 24 hours"}]}]}
